Laboratory results as given in patent US9873696B2, “Neprilysin inhibitors” (THERAVANCE BIOPHARMA R&D IP, LLC, priority 2010, dated 2018).

biological target: T1, human NEP (Homo sapiens, UniProt P08473); assay: In vitro enzyme inhibition assay at human NEP (Assay 1); type: biochemical; settings: recombinant enzyme, fluorogenic peptide substrate, 37° C.
T1 construct: purchased R&D Systems, Minneapolis, Minn; 1182-ZN
Method: In Vitro Assays for the Quantitation of Inhibitor Potencies (IC50) at Human and Rat NEP, and Human ACE
The inhibitory activities of compounds at human and rat neprilysin (EC 3.4.24.11; NEP) and human angiotensin converting enzyme (ACE) were determined using in vitro assays as described below.
Recombinant human NEP and recombinant human ACE were obtained commercially (R&D Systems, Minneapolis, Minn., catalog numbers 1182-ZN and 929-ZN, respectively). The fluorogenic peptide substrate Mca-D-Arg-Arg-Leu-Dap-(Dnp)-OH (Medeiros et al. (1997) Braz. J. Med. Biol. Res. 30:1157-62; Anaspec, San Jose, Calif.) and Abz-Phe-Arg-Lys(Dnp)-Pro-OH (Araujo et al. (2000) Biochemistry 39:8519-8525; Bachem, Torrance, Calif.) were used in the NEP and ACE assays respectively.
The assays were performed in 384-well white opaque plates at 37° C. using the fluorogenic peptide substrates at a concentration of 10 μM in Assay Buffer (NEP: 50 mM HEPES, pH 7.5, 100 mM NaCl, 0.01% polyethylene glycol sorbitan monolaurate (Tween-20), 10 μM ZnSO4; ACE: 50 mM HEPES, pH 7.5, 100 mM NaCl, 0.01% Tween-20, 1 μM ZnSO4).
Test compounds were assayed over the range of concentrations from […] to 20 μM. Test compounds were added to the enzymes and incubated for 30 minute at 37° C. prior to initiating the reaction by the addition of substrate. Reactions were terminated after 20 minutes of incubation at 37° C. by the addition of glacial acetic acid to a final concentration of 3.6% (v/v).
Plates were read on a fluorometer with excitation and emission wavelengths set to 320 nm and 405 nm, respectively. Inhibition constants were obtained by nonlinear regression of the data using the equation (GraphPad Software, Inc., San Diego, Calif.): v=v0/[1+(I/K′)] where v is the reaction rate, v0 is the uninhibited reaction rate, I is the inhibitor concentration and K′ is the apparent inhibition constant.
Compounds of the invention were tested in this assay and found to have pKi values at human NEP as follows.

T1 sequence (P08473 whole entry): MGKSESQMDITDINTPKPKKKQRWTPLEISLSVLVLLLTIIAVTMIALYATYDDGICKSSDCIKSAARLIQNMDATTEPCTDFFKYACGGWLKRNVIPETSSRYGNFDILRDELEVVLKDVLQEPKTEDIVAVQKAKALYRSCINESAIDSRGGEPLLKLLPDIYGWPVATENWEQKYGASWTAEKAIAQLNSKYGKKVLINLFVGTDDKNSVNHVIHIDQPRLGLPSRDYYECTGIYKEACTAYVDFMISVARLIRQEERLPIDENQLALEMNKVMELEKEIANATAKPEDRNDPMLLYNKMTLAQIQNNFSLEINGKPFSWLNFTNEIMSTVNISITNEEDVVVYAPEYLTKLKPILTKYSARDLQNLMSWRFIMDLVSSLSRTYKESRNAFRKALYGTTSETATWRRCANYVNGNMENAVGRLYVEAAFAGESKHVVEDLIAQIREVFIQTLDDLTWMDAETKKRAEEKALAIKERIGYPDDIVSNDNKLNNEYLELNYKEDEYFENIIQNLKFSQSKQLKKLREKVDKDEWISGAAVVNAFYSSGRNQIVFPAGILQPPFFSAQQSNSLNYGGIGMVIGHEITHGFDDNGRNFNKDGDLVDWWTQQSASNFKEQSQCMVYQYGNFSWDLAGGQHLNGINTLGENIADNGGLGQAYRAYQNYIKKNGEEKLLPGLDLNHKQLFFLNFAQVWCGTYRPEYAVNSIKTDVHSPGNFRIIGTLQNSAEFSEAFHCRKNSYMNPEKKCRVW

Compound | Ki
O=C(NN(Cc1ccc(-c2ccccc2)cc1)C[C@H](O)C(=O)O)c1cnc2[nH]nnc2c1 [Example 2-22, (S)-3-[N-Biphenyl-4-ylmethyl-N′-(3H-[1,2,3]triazolo[4,5-b]pyridine-6-carbonyl)hydrazino]-2-hydroxypropionic acid] | 126 to 1000 nM
O=C(NN(Cc1ccc(-c2ccccc2)cc1)C[C@@H](O)C(=O)O)c1cc(F)c2[nH]nnc2c1 [Example 2-23, (R)-3-[N-Biphenyl-4-ylmethyl-N′-(7-fluoro-1H-benzotriazole-5-carbonyl)-hydrazino]-2-hydroxypropionic acid] | 126 to 1000 nM
O=C(NN(Cc1ccc(-c2ccccc2)cc1)C[C@H](O)C(=O)O)c1cc(F)c2[nH]nnc2c1 [Example 2-24, (S)-3-[N-Biphenyl-4-ylmethyl-N′-(7-fluoro-1H-benzotriazole-5-carbonyl)-hydrazino]-2-hydroxypropionic acid] | 126 to 1000 nM
O=C(NN(Cc1ccc(-c2ccccc2)cc1)C[C@H](O)C(=O)O)c1cc(Cl)c2[nH]nnc2c1 [Example 2-25, (S)-3-[N-Biphenyl-4-ylmethyl-N′-(7-chloro-1H-benzotriazole-5-carbonyl)-hydrazino]-2-hydroxypropionic acid] | 126 to 1000 nM
O=C(NN(Cc1ccc(-c2cccc(Cl)c2)cc1)C[C@@H](O)C(=O)O)c1nc(Cl)n[nH]1 [Example 4-1, (R)-3-[N-(3′-Chlorobiphenyl-4-ylmethyl)-N′-(5-chloro-2H-[1,2,4]triazole-3-carbonyl)-hydrazino]-2-hydroxy-propionic acid] | 1.26 to 10 nM
O=C(NN(Cc1ccc(-c2cccc(Cl)c2)cc1)C[C@@H](O)C(=O)O)c1nc(O)n[nH]1 [Example 4-2, (R)-3-[N-(3′-Chlorobiphenyl-4-ylmethyl)-N′-(5-hydroxy-2H-[1,2,4]triazole-3-carbonyl)-hydrazino]-2-hydroxy-propionic acid] | 1.26 to 10 nM
O=C(NN(Cc1ccc(-c2cccc(Cl)c2)cc1)C[C@@H](O)C(=O)O)c1cnn[nH]1 [Example 4-3, (R)-3-[N-(3′-Chlorobiphenyl-4-ylmethyl)-N′-(3H-[1,2,3]triazole-4-carbonyl)-hydrazino]-2-hydroxy-propionic acid] | 1.26 to 10 nM
O=C(NN(Cc1ccc(-c2cccc(Cl)c2)cc1)C[C@@H](O)C(=O)O)c1cc(-c2cccnc2)[nH]n1 [Example 4-9, (R)-3-[N-(3′-Chlorobiphenyl-4-ylmethyl)-N′-(5-pyridin-3-yl-1H-pyrazole-3-carbonyl)-hydrazino]-2-hydroxy-propionic acid] | 1.26 to 10 nM
O=C(NN(Cc1ccc(-c2cccc(Cl)c2)cc1)C[C@@H](O)C(=O)O)c1cc(C2CC2)[nH]n1 [Example 4-10, (R)-3-[N-(3′-Chlorobiphenyl-4-ylmethyl)-N′-(5-cyclopropyl-1H-pyrazole-3-carbonyl)-hydrazino]-2-hydroxy-propionic acid] | 1.26 to 10 nM
O=C(NN(Cc1ccc(-c2cccc(Cl)c2)cc1)C[C@@H](O)C(=O)O)c1cc(-c2ccccc2O)n[nH]1 [Example 4-19, (R)-3-{N-(3′-Chlorobiphenyl-4-ylmethyl)-N′-[5-(2-hydroxy-phenyl)-2H-pyrazole-3-carbonyl]-hydrazino}-2-hydroxy-propionic acid] | 1.26 to 10 nM

The next molecules have a lower Ki than those just listed; values first:

Ki | Compound
≤ 1 nM | O=C(NN(Cc1ccc(-c2cccc(Cl)c2)cc1)C[C@@H](O)C(=O)O)c1cc(O)no1 [Example 3B, (R)-3-[N-(3′-Chlorobiphenyl-4-ylmethyl)-N′-(3-hydroxyisoxazole-5-carbonyl)-hydrazino]-2-hydroxypropionic Acid]
≤ 1 nM | O=C(NN(Cc1ccc(-c2cccc(Cl)c2)cc1)C[C@H](O)C(=O)O)c1cc(O)no1 [Example 3K, (S)-3-[N-(3′-Chloro-biphenyl-4-ylmethyl)-N′-(3-hydroxyisoxazole-5-carbonyl)-hydrazino]-2-hydrox-propionic Acid]
≤ 1 nM | O=C(NN(Cc1ccc(-c2cccc(Cl)c2)cc1)C[C@@H](O)C(=O)O)c1cn(O)nn1 [Example 4-4, (R)-3-[N-(3′-Chlorobiphenyl-4-ylmethyl)-N′-(1-hydroxy-1H-[1,2,3]triazole-4-carbonyl)-hydrazino]-2-hydroxy-propionic acid]
≤ 1 nM | O=C(NN(Cc1ccc(-c2cccc(Cl)c2)cc1)C[C@@H](O)C(=O)O)c1nnn[nH]1 [Example 4-5, (R)-3-[N-(3′-Chlorobiphenyl-4-ylmethyl)-N′-(1H-tetrazole-5-carbonyl)-hydrazino]-2-hydroxy-propionic acid]
≤ 1 nM | O=C(NN(Cc1ccc(-c2cccc(Cl)c2)cc1)C[C@@H](O)C(=O)O)c1cc(C(=O)N2CCCC2)n[nH]1 [Example 4-11, (R)-3-{N-(3′-Chlorobiphenyl-4-ylmethyl)-N′-[5-(pyrrolidine-1-carbonyl)-2H-pyrazole-3-carbonyl]-hydrazino}-2-hydroxy-propionic acid]
≤ 1 nM | O=C(NN(Cc1ccc(-c2cccc(Cl)c2)cc1)C[C@@H](O)C(=O)O)c1cc(C(=O)N2CCC2)n[nH]1 [Example 4-12, (R)-3-[N′-[5-(Azetidine-1-carbonyl)-2H-pyrazole-3-carbonyl]-N-(3′-chlorobiphenyl-4-ylmethyl)-hydrazino]-2-hydroxy-propionic acid]
≤ 1 nM | CN(C)C(=O)c1cc(C(=O)NN(Cc2ccc(-c3cccc(Cl)c3)cc2)C[C@@H](O)C(=O)O)[nH]n1 [Example 4-13, (R)-3-[N-(3′-Chlorobiphenyl-4-ylmethyl)-N′-(5-dimethylcarbamoyl-2H-pyrazole-3-carbonyl)-hydrazino]-2-hydroxy-propionic acid]
≤ 1 nM | O=C(NN(Cc1ccc(-c2cccc(Cl)c2)cc1)C[C@@H](O)C(=O)O)c1cc(C(=O)N2CC[C@@H](O)C2)n[nH]1 [Example 4-14, (R)-3-{N-(3′-Chlorobiphenyl-4-ylmethyl)-N′-[5-((R)-3-hydroxy-pyrrolidine-1-carbonyl)-2H-pyrazole-3-carbonyl]-hydrazino}-2-hydroxy-propionic acid]
≤ 1 nM | O=C(NN(Cc1ccc(-c2cccc(Cl)c2)cc1)C[C@@H](O)C(=O)O)c1cc(-c2ccccc2Cl)n[nH]1 [Example 4-15, (R)-3-{N-(3′-Chlorobiphenyl-4-ylmethyl)-N′-[5-(2-chlorophenyl)-2H-pyrazole-3-carbonyl]-hydrazino}-2-hydroxy-propionic acid]
≤ 1 nM | CC(C)CN(C)C(=O)c1cc(C(=O)NN(Cc2ccc(-c3cccc(Cl)c3)cc2)C[C@@H](O)C(=O)O)[nH]n1 [Example 4-16, (R)-3-{N-(3′-Chlorobiphenyl-4-ylmethyl)-N′-[5-(isobutyl-methyl-carbamoyl)-2H-pyrazole-3-carbonyl]-hydrazino}-2-hydroxy-propionic acid]
≤ 1 nM | CN(CC1CC1)C(=O)c1cc(C(=O)NN(Cc2ccc(-c3cccc(Cl)c3)cc2)C[C@@H](O)C(=O)O)[nH]n1 [Example 4-17, (R)-3-{N-(3′-Chlorobiphenyl-4-ylmethyl)-N′-[5-(cyclopropylmethyl-methyl-carbamoyl)-2H-pyrazole-3-carbonyl]-hydrazino}-2-hydroxy-propionic acid]
≤ 1 nM | O=C(NN(Cc1ccc(-c2cccc(Cl)c2)cc1)C[C@@H](O)C(=O)O)c1cc(C(=O)N2CC(F)C2)n[nH]1 [Example 4-18, (R)-3-{N-(3′-Chlorobiphenyl-4-ylmethyl)-N′-[5-(3-fluoroazetidine-1-carbonyl)-2H-pyrazole-3-carbonyl]-hydrazino}-2-hydroxy-propionic acid]
